The numbers were not newly measured in patent US10973866B2, “Compositions and methods for treating, inhibiting the onset, and slowing the progression of erectile dysfunction including naturally occurring age related erectile dysfunction” (K.L.R.M., LLC, priority 2010, dated 2021), which cites them from elsewhere.

The conditions of data set [1]: human, in vivo.
Another data set deals with erectile function. The conditions noted are these: men in their 30's with normal erectile function.

SMILES strings stand for the structures.

With `NC(=O)NCCC[C@H](N)C(=O)O` [L-citrulline], the side effects entry in data set [1] is “no known side effects”.

Regarding `CCCc1nn(C)c2c(=O)[nH]c(-c3cc(S(=O)(=O)N4CCN(C)CC4)ccc3OCC)nc12` [Viagra], in the data set on erectile function, the “erectile function as measured by the IIEF” value is “increased erectile function” and the refractory period entry is given as “decrease in the refractory period”.
